Experiments:
[1] = test system: mouse skin fibroblasts; test: Migration assay on mouse skin fibroblasts; assay type: cell-based; settings: synthetic peptide, PDGFRα-positive cells, FIG. 13A
Procedure: Newborn C57/B16 mice were euthanized using isoflurane and carbon dioxide inhalation. Then, the mice were washed thoroughly with EtOH and PBS. The skin together with dermis was exfoliated and the blood was washed off with PBS. The exfoliated skin was cut into fine pieces with scissors. The skin pieces were placed in DMEM (Nacalai tesque, Cat: 08458-45) containing 0.2% collagenase (Roche, REF: 10103586001) and shaken at 37° C. for 30 minutes. The reaction was stopped with DMEM/30% FBS/P/S. The resulting cells were centrifuged at 160×G for 5 minutes and plated in a 10-cm dish. The cells were cultured under 5% CO2 at 37° C. and the medium was changed every three days. The cells were passaged when they reached 80% to 90% confluency. The cells were harvested from the dish using trypsin. After inactivation of trypsin with D-MEM containing 10% FBS, a synthetic peptide consisting of the amino acid sequence of positions 1 to 34 (1-34) was assessed for migration-promoting activity according to the migration assay method described above.

[2] = test system: mouse keratinocytes; test: Migration assay on mouse keratinocytes; assay type: cell-based; settings: synthetic peptide, PDGFRα-negative cells, FIG. 12A
Procedure: Newborn C57/B16 mice were euthanized using isoflurane and carbon dioxide inhalation. Then, the mice were washed thoroughly with EtOH and PBS. The skin together with dermis was exfoliated and the blood was washed off with PBS. The exfoliated skin was placed in Dispase I (Sanko Junyaku Co., Cat: GD81060) at 4° C. for 16 hours. The epidermis and dermis were detached with forceps, and the epidermis was placed in trypsin (Nacalai tesque, Cat: 3554-64) at 37° C. for 10 minutes. When white turbidity began to appear, the reaction was stopped with S-MEM (GIBCO, Cat: 11380)/15% FBS(Ca-)P/S. The resulting cells were centrifuged at 160×G for 5 minutes, and suspended in CnT-07 medium (CELLnTEC, Cat: CnT-07 BM) and plated in a 10-cm dish. The cells were cultured under 5% CO2 at 37° C. and the medium was changed every three days. The cells were passaged when they reached 80% to 90% confluency. The cells were harvested from the dish using trypsin. After inactivation of trypsin with DMEM containing 10% FBS, a synthetic peptide consisting of the amino acid sequence of positions 1 to 34 (1-34) was examined for migration-promoting activity according to the migration assay method described above.

[3] = test system: mouse bone marrow mesenchymal stem cell line (MSC-1 cells), PDGFRα-positive; test: Migration assay (Boyden / 48-well chemotaxis chamber) on bone marrow mesenchymal stem cell line MSC-1; assay type: cell-based
Method in brief: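 Mouse MSC-1 cells (3×10^6 cells/ml in D-MEM with 10% FBS) loaded in the upper wells of a 48-well Boyden chamber with 8 μm polycarbonate membrane; mouse HMGB1 peptides or HEK293-made HMGB1 in lower wells at 100 μg/ml, 5 μM or 10 μM; PBS as negative control. After 4 h at 37° C, migrated cells were Diff-Quik stained.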

[4] = test system: CD11b-negative, PDGFRα-positive cells (primary cultured bone marrow mesenchymal cells); test: Migration assay on primary cultured CD11b-negative, PDGFRα-positive bone marrow cells; assay type: cell-based, mouse; settings: peptide produced in HEK293, 40 μg/ml, FIG. 5
Procedure: Thigh and tibial bones were excised from donor mice: B6.129S4-Pdgfratm11(EGFP)Sor/J (PDGFRα-GFP Mouse). After removing attached muscles and other tissues, the bones were crushed finely and incubated with 0.2% collagenase (Roche, REF: 10103586001)/DMEM/2% FBS(filtrated) at 37° C. for 40 minutes. Then, cell aggregates and muscle tissues were removed by filtration through a 40-μm nylon mesh. After centrifugation at 1200 rpm for 10 minutes, the resulting cells were suspended in αMEM containing 10% FBS and 1% P/S and cultured in an incubator under 5% CO2 at 37° C. until they reached 100% confluence. The cells were harvested and the following experiment was carried out according to the protocol attached to CD11b MicroBeads (Miltenyi Biotec; order No: 130-049-601). The cells were adjusted to 10^7 cells/90 μl with PBS(−), and CD11b MicroBeads were added at 10 μl/10^7 cells. After 15 minutes of reaction at 4° C., the cells were washed twice and suspended in 500 μl of PBS(−). The tube was placed in AutoMACS separator and the cells were collected according to the separation program “Depletes”. The collected cells were plated onto an adherent cell culture dish. After adhesion, GFP fluorescence was observed using a fluorescence microscope. The above-described peptide 1-44 produced in HEK293 was tested for the migration-promoting activity using CD11b-negative cells. […]

[5] = 2 μM, area of migrated cells by image analysis, FIG. 10

| Substance | migration-promoting activity on skin fibroblasts [1] | migration-promoting activity on mouse keratinocytes [2] | migration-promoting activity ([3]; synthetic peptides, 100 μg/ml, positive control 1-215(HEK), FIG. 7) | migration-promoting activity [4] | migration-promoting activity relative to the full-length HMGB1, compared per equal mass [3, 5] | migration-promoting activity relative to the full-length HMGB1, compared per equal mole [3, 5] | migration-promoting activity ([3]; protein and peptides produced using HEK293 (mouse HMGB1), 50 μg/ml, 4 h, FIG. 2A) |
| --- | --- | --- | --- | --- | --- | --- | --- |
| (1-34): synthetic peptide consisting of the amino acid sequence from positions 1 to 34 of HMGB1 (MGKGDPKKPRGKMSSYAFFVQTCREEHKKKHPDA; UniProt P09429 1-34, looked up, fragment) | exhibited migration-promoting activity | did not show migration-promoting activity | activity comparable to or higher than that of the positive control |  |  |  |  |
| 1-44: peptide of positions 1 to 44 of mouse HMGB1, produced using HEK293 (MGKGDPKKPRGKMSSYAFFVQTCREEHKKKHPDASVNFSEFSKK; UniProt P63158 1-44, looked up, fragment) |  |  |  | strong migration-promoting activity | about 8 times | about 1.6 times | showed migration-promoting activity |

— patent US10550165B2, “Peptide for inducing regeneration of tissue and use thereof” (STEMRIM INC., priority 2011, dated 2020)
